Test results as given in patent publication US10308959B2, “Methods, systems, and compositions relating to MiRNA-146a” (Henry Ford Health System, priority 2013, dated 2019).

What was measured:
Type in all cases: cell-based
[1] = system: mouse OPC cell line-N20.1; assay: miR-146a quantification by qrtPCR in N20.1 cells
Method: The mouse primary cultures of OPCs were conditionally immortalized by transformation with a temperature-sensitive large T-antigen into a mouse OPC cell line-N20.1 (21). N20.1 cells were provided by Dr. Anthony Campagnoni (University of California at Los Angeles). N20.1 cells were grown and maintained in Dulbecco's modified Eagle's medium (“DMEM”)/F12 with 1% fetal bovine serum (“FBS”) and G418 (100 μg/ml) at 37° C. For N20.1 cells, transient transfections were performed with Nucleofector kit according to the manufacturer's protocol (Amaxa, Germany). The cells (10^6) were mixed with 1 μg plasmid DNA or 100 pmol of siRNA/oligo nucleotides and pulsed according to the manufacturer's instruction. The transfected cells were immediately plated into Petri dishes with DMEM containing 1% FBS and incubated at 37° C. for days. Primary rat embryonic OPCs were transiently transfected with Lipofectamine (Invitrogen) overnight, according to the manufacturer's protocol (see Chew et al., J. Neuroscience 30(33): 11011-11027 (2010)). […]
The cDNA for each miR and TaqMan assay were performed in triplicate according to the manufacturer's protocol specified in Applied Biosystems ViiA™ 7 Real-Time PCR System (Applied Biosystem). […] Values obtained from three independent experiments were analyzed relative to gene expression data using the 2^−ΔΔCT method.

[2] = system: mouse N20.1 cells; assay: MBP immunofluorescence cell counting in N20.1 cells; details: Tβ4 100 ng/ml where used; DAPI positive cells as total
Method: (§1) The mouse primary cultures of OPCs were conditionally immortalized by transformation with a temperature-sensitive large T-antigen into a mouse OPC cell line-N20.1 (21). N20.1 cells were provided by Dr. Anthony Campagnoni (University of California at Los Angeles). N20.1 cells were grown and maintained in Dulbecco's modified Eagle's medium (“DMEM”)/F12 with 1% fetal bovine serum (“FBS”) and G418 (100 μg/ml) at 37° C. For N20.1 cells, transient transfections were performed with Nucleofector kit according to the manufacturer's protocol (Amaxa, Germany). The cells (10^6) were mixed with 1 μg plasmid DNA or 100 pmol of siRNA/oligo nucleotides and pulsed according to the manufacturer's instruction. […]
Immunofluorescence staining was performed in N20.1 and primary rat embryonic OPC cells. These cells were fixed with 4% paraformaldehyde for 1 h, washed with PBS, blocked with 1% serum for 1 h and incubated with monoclonal antibodies of OPC marker—O4, (1:1000, Chemicon, Billerica, Mass., USA) and a polyclonal antibody against mature OL marker—MBP (1:200; Dako, Carpinteria, Calif.) at room temperature for one hour, rinsed with PBS and secondary antibodies labeled with cyanine fluorophore (Cy3—red fluorescence) for 1 h. The slides were counterstained with 4′,6-diamidino-2-phenylindole (DAPI—blue fluorescence) and examined under Fluorescent Illumination Microscope (Olympus IX71/IX51, Tokyo, Japan). […]

[3] = system: primary rat embryonic OPCs; assay: miR-146a quantification by qrtPCR in primary rat embryonic OPCs
Method: (§2) Primary rat embryonic OPCs were isolated and prepared according to the method known to the skilled artisan. Briefly, on embryonic day 17, rat embryos were removed from a pregnant Wistar rat in a laminar flow hood. The cortices were dissected out by using microdissecting scissors, rinsed twice in Hank's buffered salt solution and dissociated after digesting with 0.01% trypsin and DNase at 37° C. for 15 min. The digested cells were washed twice, filtered through a 70 mm nylon cell strainer and plated with DMEM containing 20% fetal bovine serum (FBS) in poly-D-lysine coated T75 cell culture flasks (approximately 10 million cells per flask). The cells grew to confluence for 10 days and then were placed on the shaker at 200 r.p.m. at 37° C. for 1 h to remove microglial cells. Subsequently, the cells were left on the shaker for an additional 18-20 h to collect OPCs. The collected OPCs were plated in untreated Petri dishes for 1 h to remove contaminated microglia and astrocytes which attach to the Petri dish more efficiently than OPCs. The unattached OPCs were transferred onto poly-D,L-ornithine-coated Petri dishes at a cell density of 10^4 per/cm2 with a basal chemically defined medium (“BDM”) containing 10 ng/ml platelet-derived growth factor-alpha (“PDGF-AA”) and 10 ng/ml basic fibroblast growth factor (“bFGF”) for 7-10 days. […]

[4] = system: primary rat embryonic OPCs; assay: MBP immunofluorescence cell counting in primary rat embryonic OPCs; details: Tβ4 100 ng/ml where used; DAPI positive cells as total
Method: as §2

[5] = system: mouse OPC cell line-N20.1; assay: Western blot of MBP, TLR signaling mediators and MAPKs in N20.1 cells
Method: The mouse primary cultures of OPCs were conditionally immortalized by transformation with a temperature-sensitive large T-antigen into a mouse OPC cell line-N20.1 (21). N20.1 cells were provided by Dr. Anthony Campagnoni (University of California at Los Angeles). N20.1 cells were grown and maintained in Dulbecco's modified Eagle's medium (“DMEM”)/F12 with 1% fetal bovine serum (“FBS”) and G418 (100 μg/ml) at 37° C. For N20.1 cells, transient transfections were performed with Nucleofector kit according to the manufacturer's protocol (Amaxa, Germany). The cells (10^6) were mixed with 1 μg plasmid DNA or 100 pmol of siRNA/oligo nucleotides and pulsed according to the manufacturer's instruction. The transfected cells were immediately plated into Petri dishes with DMEM containing 1% FBS and incubated at 37° C. for days. Primary rat embryonic OPCs were transiently transfected with Lipofectamine (Invitrogen) overnight, according to the manufacturer's protocol (see Chew et al., J. Neuroscience 30(33): 11011-11027 (2010)). Amounts of DNA and siRNA/oligo nucleotides were used as recommended by the manufacturer. The control plasmid (pcDNA3) was used as a mock transfected control for miR-146a expression vector transfection, and control siRNA (Ambion, a random mixture of oligonucleotides) was used as a mock transfected control for both transfections with Tβ4siRNA and anti-miR-146a inhibitor nucleotides. The cells (10^4 cells/cm^2) were treated with 0, 25, 50, 100 ng/ml of Tβ4 (RegeneRx Biopharmaceuticals Inc., Rockville, Md.). The cells were incubated at 37° C. and fed every 2 days with fresh medium (DMEM containing 1% FBS for N20.1 cells and BDM for primary rat embryonic OPCs) with and without Tβ4 for 4 days. To test for LPS contamination in Tβ4, the cells were cultured in the presence of the LPS inhibitor polymyxin B (50 μg/ml) followed by treatment with Tβ4. Tβ4 (100 ng/ml) was boiled for 10 minutes in order to denature Tβ4 protein and was used as a negative control. Transfected cells (2×10^4 cells/cm2) including mock transfected controls were treated with and without 100 ng/ml of Tβ4 (RegeneRx Biopharmaceuticals Inc., Rockville, Md.) for 4 days and fresh medium was provided at day 2 with/without Tβ4.
Total protein extracts from the cells were prepared, as known to the skilled artisan. The protein extracts were separated by sodium dodecyl sulfate-polyacrylamide gel electrophoresis for Western blot analysis. For Western blot analysis, rabbit antiserum for MBP (1:200; Dako, Carpinteria, Calif.), monoclonal antibodies (1:1000) for p38MAPK, phosphorylated p38MAPK, c-JUN, phosphorylated c-JUN (1:1000; Upstate, Charlottesville, Va., USA), rabbit polyclonal antibodies (1:1000) for JNK1 and phosphorylated JNK1 (Promega Corporation), goat polyclonal TLR2, rabbit polyclonal TLR4, mouse monoclonal IRAK1 antibodies (1:1000), rabbit polyclonal TRAF6 antibodies (1:1000) mouse monoclonal β-actin antibodies (1:5000; Santa Cruz Biotechnology) and mouse monoclonal α-tubulin antibodies (1:5000; Sigma) were used. Donkey anti-goat, anti-rabbit, and anti-mouse horseradish peroxidase (1:5000; Jackson ImmunoResearch Labs, West Grove, Pa., USA) were used as secondary antibodies. Each experiment was repeated at least three times. The protein bands were quantified based on histogram analysis relative to gel loading marker α-tubulin.

[6] = system: primary rat embryonic OPCs; assay: Western blot of MBP, TLR signaling mediators and MAPKs in primary rat embryonic OPCs
Method: (§3) Primary rat embryonic OPCs were isolated and prepared according to the method known to the skilled artisan. Briefly, on embryonic day 17, rat embryos were removed from a pregnant Wistar rat in a laminar flow hood. The cortices were dissected out by using microdissecting scissors, rinsed twice in Hank's buffered salt solution and dissociated after digesting with 0.01% trypsin and DNase at 37° C. for 15 min. The digested cells were washed twice, filtered through a 70 mm nylon cell strainer and plated with DMEM containing 20% fetal bovine serum (FBS) in poly-D-lysine coated T75 cell culture flasks (approximately 10 million cells per flask). The cells grew to confluence for 10 days and then were placed on the shaker at 200 r.p.m. at 37° C. for 1 h to remove microglial cells. Subsequently, the cells were left on the shaker for an additional 18-20 h to collect OPCs. The collected OPCs were plated in untreated Petri dishes for 1 h to remove contaminated microglia and astrocytes which attach to the Petri dish more efficiently than OPCs. The unattached OPCs were transferred onto poly-D,L-ornithine-coated Petri dishes at a cell density of 10^4 per/cm2 with a basal chemically defined medium (“BDM”) containing 10 ng/ml platelet-derived growth factor-alpha (“PDGF-AA”) and 10 ng/ml basic fibroblast growth factor (“bFGF”) for 7-10 days.
The mouse primary cultures of OPCs were conditionally immortalized by transformation with a temperature-sensitive large T-antigen into a mouse OPC cell line-N20.1 (21). N20.1 cells were provided by Dr. Anthony Campagnoni (University of California at Los Angeles). N20.1 cells were grown and maintained in Dulbecco's modified Eagle's medium (“DMEM”)/F12 with 1% fetal bovine serum (“FBS”) and G418 (100 μg/ml) at 37° C. For N20.1 cells, transient transfections were performed with Nucleofector kit according to the manufacturer's protocol (Amaxa, Germany). The cells (10^6) were mixed with 1 μg plasmid DNA or 100 pmol of siRNA/oligo nucleotides and pulsed according to the manufacturer's instruction. The transfected cells were immediately plated into Petri dishes with DMEM containing 1% FBS and incubated at 37° C. for days. Primary rat embryonic OPCs were transiently transfected with Lipofectamine (Invitrogen) overnight, according to the manufacturer's protocol (see Chew et al., J. Neuroscience 30(33): 11011-11027 (2010)). Amounts of DNA and siRNA/oligo nucleotides were used as recommended by the manufacturer. The control plasmid (pcDNA3) was used as a mock transfected control for miR-146a expression vector transfection, and control siRNA (Ambion, a random mixture of oligonucleotides) was used as a mock transfected control for both transfections with Tβ4siRNA and anti-miR-146a inhibitor nucleotides. The cells (10^4 cells/cm^2) were treated with 0, 25, 50, 100 ng/ml of Tβ4 (RegeneRx Biopharmaceuticals Inc., Rockville, Md.). The cells were incubated at 37° C. and fed every 2 days with fresh medium (DMEM containing 1% FBS for N20.1 cells and BDM for primary rat embryonic OPCs) with and without Tβ4 for 4 days. To test for LPS contamination in Tβ4, the cells were cultured in the presence of the LPS inhibitor polymyxin B (50 μg/ml) followed by treatment with Tβ4. Tβ4 (100 ng/ml) was boiled for 10 minutes in order to denature Tβ4 protein and was used as a negative control. […]

[7] = system: mouse OPC cell line-N20.1; assay: QrtPCR of mRNA (MBP, p38MAPK) in N20.1 cells
Method: The mouse primary cultures of OPCs were conditionally immortalized by transformation with a temperature-sensitive large T-antigen into a mouse OPC cell line-N20.1 (21). N20.1 cells were provided by Dr. Anthony Campagnoni (University of California at Los Angeles). N20.1 cells were grown and maintained in Dulbecco's modified Eagle's medium (“DMEM”)/F12 with 1% fetal bovine serum (“FBS”) and G418 (100 μg/ml) at 37° C. For N20.1 cells, transient transfections were performed with Nucleofector kit according to the manufacturer's protocol (Amaxa, Germany). The cells (10^6) were mixed with 1 μg plasmid DNA or 100 pmol of siRNA/oligo nucleotides and pulsed according to the manufacturer's instruction. The transfected cells were immediately plated into Petri dishes with DMEM containing 1% FBS and incubated at 37° C. for days. Primary rat embryonic OPCs were transiently transfected with Lipofectamine (Invitrogen) overnight, according to the manufacturer's protocol (see Chew et al., J. Neuroscience 30(33): 11011-11027 (2010)). Amounts of DNA and siRNA/oligo nucleotides were used as recommended by the manufacturer. The control plasmid (pcDNA3) was used as a mock transfected control for miR-146a expression vector transfection, and control siRNA (Ambion, a random mixture of oligonucleotides) was used as a mock transfected control for both transfections with Tβ4siRNA and anti-miR-146a inhibitor nucleotides. The cells (10^4 cells/cm^2) were treated with 0, 25, 50, 100 ng/ml of Tβ4 (RegeneRx Biopharmaceuticals Inc., Rockville, Md.). The cells were incubated at 37° C. and fed every 2 days with fresh medium (DMEM containing 1% FBS for N20.1 cells and BDM for primary rat embryonic OPCs) with and without Tβ4 for 4 days. […]
After qrtPCR, agarose gel electrophoresis was performed to verify the quality of the qrtPCR products. No secondary products were detected. […] Values obtained from three independent experiments were analyzed relative to gene expression data using the 2^−ΔΔCT method.

[8] = system: primary rat embryonic OPCs; assay: QrtPCR of mRNA (MBP, p38MAPK) in primary rat embryonic OPCs
Method: as §3, §1

[9] = second miR named, sentence 'In contrast'
[10] = in the presence of polymyxin B (50 μg/ml), 50 and 100 ng/ml, 4 days

thymosin beta 4 (SDKPDMAEIEKFDKSKLKKTETQEKNPLPSKETIEQEKQAGES; listed as Homo sapiens) [Tβ4]
expression of miR-146a ([1]; Tβ4 0 to 100 ng/ml, 4 days): increased in a dose dependent manner
miR-146a expression (data not shown) [1, 9]: no effect
number of MBP positive OPCs [2]: significantly increased
expression of miR-146a ([3]; Tβ4 0 to 100 ng/ml, 4 days): increased in a dose dependent manner
miR-146a expression (data not shown) [3, 9]: no effect
number of MBP positive OPCs [4]: significantly increased
expression and phosphorylation of p38MAPK [5]: induced
expression level of MBP (protein) [5]: increased
expression levels of IRAK1 and TRAF6 [5]: markedly reduced
expression of TLR2 and TLR4 [5]: no effect
phosphorylation of ERK1/2, JNK1 and c-Jun [5]: dose-dependently inhibited
expression and phosphorylation of p38MAPK [6]: induced
expression level of MBP (protein) [6]: increased
expression levels of IRAK1 and TRAF6 [6]: markedly reduced
expression of TLR2 and TLR4 [6]: no effect
phosphorylation of ERK1/2, JNK1 and c-Jun [6]: dose-dependently inhibited
increase in mRNA MBP expression ([7]; Tβ4 100 ng/ml where used): two-fold increase
expression of MBP, mRNA and protein levels [7, 10]: induced
increase in mRNA MBP expression ([8]; Tβ4 100 ng/ml where used): two-fold increase
expression of MBP, mRNA and protein levels [8, 10]: induced
